The subject of one data set is HCT116 cells. The experiment in a line: Uptake of FITC-tagged protein, fluorescent microscopy / flow cytometry. The data set is classed as cell-based, human. An excerpt:
To determine the mechanism by which the chromoprotein enters cells and exerts its biological activity, the chromoprotein was labeled with a fluorescent tag (FITC) using EZ-Label fluorescent labeling kit (Pierce Biotechnology), according to the manufacturer's recommendation. […] Uptake of labeled material by HCT116 colon carcinoma cells was studied by fluorescent microscopy.
To determine whether an intact complex of chromophore and apoprotein is required for cellular and nuclear entry, the chromoprotein and apoprotein were labeled with FITC. Uptake of labeled material was studied by fluorescent microscopy.
To determine whether the entry of chromoprotein into cells is mediated by a saturable (e.g. cell surface receptor-dependent) process, HCT116 cells were incubated with FITC-labeled chromoprotein (FIG. 28, right panel) or apoprotein (FIG. 28, left panel) in the absence or presence of 10-fold excess of unlabeled reagent (unlabelled chromoprotein or apoprotein, respectively). Cells were analysed by fluorescent microscopy (left) or flow cytometry (right). […] Numbers in the histograms are mean channel numbers (FITC fluorescence).
Other means by which a protein complex can enter cells is pinocytosis, where caveolae in the surface of the cell pinch off to form pinosomes that are free within the cytoplasm of the cell. Since pinocytosis is an energy-dependent process that requires a functional tubulin cytoskeletal network, we examined the effect of sodium azide, an energy uncoupling agent and nocodazole, an agent which disrupts the tubulin cytoskeleton on cellular uptake. HCT116 cells were treated with FITC-labeled apoprotein in the absence or presence of sodium azide or nocodazole.
(In general: Flow cytometry measures light scatter and fluorescence of single cells or particles in a stream.)

The next data set relates to KB-8-5. Kind of data set: IC50 against P-GP expressing cells: KB-8-5. The data set is classed as cell-based. Conditions: KB-8-5, P-GP level +; mean of two independent experiments. An excerpt:
(§1) Human PGP (MDR1) is an ATP-dependent efflux pump which is capable of transporting many drugs across cell membranes. High level expression of this protein has been linked to multiple drug resistance of tumors. […] The protein component of the chromoprotein probably protects the chromophore from drug efflux mediated by MDR1, and may be responsible for the beneficial antitumor effects in colon cell lines which often express MDR1.

Another data set deals with histone H1 in HeLa cells. Kind of data set: Digestion of histone H1 in HeLa cells, immunoblot. The data set is classed as cell-based. The conditions noted are these: overnight at 37° C., anti-histone H1 immunoblot. On the procedure:
To study whether the digestion of histones by the chromoprotein occurs in intact cells, HeLa cells were incubated with compounds overnight at 37° C. Cell lysates were analysed by SDS-PAGE and protein immunoblotting using anti-histone H1 antibodies (Santa Cruz Biotechnologies). […] This activity can contribute to antitumor effects by digesting histones in chromatin, making the DNA more accessible for cleavage. This appears to be a unique activity of the chromoprotein enediynes.
(In general: A western blot detects proteins with antibodies after separation by electrophoresis.)

For another data set, the target named is T1, Human PGP (MDR1) (Homo sapiens, UniProt P08183).
T1 construct: endogenous in cells; parental KB is P-GP negative
T1 sequence (P08183 whole entry): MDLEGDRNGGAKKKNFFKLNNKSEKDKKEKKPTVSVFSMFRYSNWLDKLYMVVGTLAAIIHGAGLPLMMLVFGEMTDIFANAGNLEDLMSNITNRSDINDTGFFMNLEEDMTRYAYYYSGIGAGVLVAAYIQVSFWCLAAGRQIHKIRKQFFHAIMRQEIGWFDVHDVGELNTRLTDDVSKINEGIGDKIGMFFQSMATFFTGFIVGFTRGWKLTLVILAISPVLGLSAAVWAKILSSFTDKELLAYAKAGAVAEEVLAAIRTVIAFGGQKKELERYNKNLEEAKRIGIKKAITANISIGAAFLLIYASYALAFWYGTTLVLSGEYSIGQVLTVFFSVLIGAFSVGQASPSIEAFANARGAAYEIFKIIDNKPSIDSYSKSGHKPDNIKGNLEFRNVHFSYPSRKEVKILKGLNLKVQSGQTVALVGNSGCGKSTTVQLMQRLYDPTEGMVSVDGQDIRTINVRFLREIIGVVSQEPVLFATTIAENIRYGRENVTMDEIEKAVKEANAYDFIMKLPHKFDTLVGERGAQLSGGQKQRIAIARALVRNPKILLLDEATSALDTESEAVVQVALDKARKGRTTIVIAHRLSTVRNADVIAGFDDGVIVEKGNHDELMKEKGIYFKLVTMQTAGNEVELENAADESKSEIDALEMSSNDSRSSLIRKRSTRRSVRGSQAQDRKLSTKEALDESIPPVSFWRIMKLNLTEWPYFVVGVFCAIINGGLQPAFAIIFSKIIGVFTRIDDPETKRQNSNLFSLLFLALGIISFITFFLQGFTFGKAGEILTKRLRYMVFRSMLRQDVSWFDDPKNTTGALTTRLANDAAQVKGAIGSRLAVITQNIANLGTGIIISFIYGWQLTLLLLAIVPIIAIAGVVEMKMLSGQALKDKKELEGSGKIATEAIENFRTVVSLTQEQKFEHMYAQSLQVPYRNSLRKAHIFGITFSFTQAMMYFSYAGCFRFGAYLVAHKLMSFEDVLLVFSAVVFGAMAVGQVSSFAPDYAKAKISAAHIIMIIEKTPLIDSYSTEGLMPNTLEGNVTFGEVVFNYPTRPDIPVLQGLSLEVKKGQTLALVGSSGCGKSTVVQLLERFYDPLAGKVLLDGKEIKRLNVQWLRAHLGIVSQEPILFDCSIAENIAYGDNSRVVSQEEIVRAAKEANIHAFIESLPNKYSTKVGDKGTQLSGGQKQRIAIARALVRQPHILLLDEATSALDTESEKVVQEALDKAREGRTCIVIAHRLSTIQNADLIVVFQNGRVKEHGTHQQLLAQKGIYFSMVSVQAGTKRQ
The experiment in a line: Transport by P-GP (MDR-1). The data set is classed as cell-based. Conditions: judged from IC50 in KB, KB-8-5, KB-V-1 cells.
Source text: as §1

Another data set concerns Histone H1. The experiment in a line: Digestion of histone H1, SDS-PAGE. The data set is classed as biochemical. The conditions noted are these: 50 mM Tris-Cl, pH 7.5 overnight at 37° C. On the procedure:
Histone H1 was incubated with various concentrations of the chromoprotein in 50 mM Tris-Cl, pH 7.5 overnight at 37° C. (FIG. 20) Digestions of histone were assessed by SDS-polyacrylamide gel electrophoresis (SDS-PAGE), followed by staining of the gel with GelCode Blue (Pierce Biotechnology, Inc, Rockford, Ill.).

The subject of the next data set is KB. Kind of data set: IC50 against P-GP expressing cells: KB. Format: cell-based. The conditions noted are these: P-GP level −, mean of two independent experiments.
Source text: as §1

For another data set, the system named is KB-V-1. The experiment in a line: IC50 against P-GP expressing cells: KB-V-1. Conditions: KB-V-1, P-GP level +++; mean of two independent experiments. The data set is classed as cell-based.
Source text: as §1

Data set [1] relates to human tumor cell line panel. The experiment in a line: In vitro anti-tumor activity, human tumor cell line panel. The data set is classed as cell-based. Conditions: apoprotein alone.

On to `COC(=O)Nc1nc2ccc(C(=O)c3cccs3)cc2[nH]1` [nocodazole, reference compound], for which the “effect on uptake of FITC-labeled apoprotein” value with HCT116 cells (HCT116 cells) is on record as “inhibited uptake of label”.

For orientation: IC50 means the concentration that inhibits the measured activity by half. On to calicheamicin [reference compound], for which the results for the half-inhibitory concentration (IC50) in the data set with KB-8-5, with KB and in the data set with KB-V-1 were 0.021 mg/L, 0.003 mg/L and above 1 mg/L, respectively. Also, in the data set on histone H1 in HeLa cells, the “histone H1 in cells after incubation” value is recorded as “No effect”. In addition, the “MDR1 substrate” value at Human PGP (MDR1) is recorded as “good substrate for MDR1”. Besides, the “digestion of histone H1” value in the data set with Histone H1 was “did not cleave histone H1”.

In the case of bleomycin, the “histone H1 in cells after incubation” value in the data set with histone H1 in HeLa cells was “No effect”.

B1: apoprotein: protein component of the 21G792 chromoprotein without chromophore, SEQ ID NO:150, 12.92409 kDa by MALDI-MS (protein)
chain: DTVTVNYDCVGYPSDIAVTIDAPATAGVGDTATFEVSSVVTTGAPQDLPAGEVVTDMAIVVGGAQSGTITASGLTNEATPAGQPVNMVGGEAQITFTSAGSVTFTPSTTTQVDNGAQCTVVGEAPVGATTVVS
modifications: Actinomadura sp. 21G792
On to B1, for which the “uptake, apoprotein compared with chromoprotein” value in the data set on HCT116 cells (FITC-labeled) is “similar”. Also, the “competition of uptake by 10-fold excess of unlabeled reagent” value with HCT116 cells (FITC-labeled, microscopy or flow cytometry) is “No competition of label”. Besides, the “in vitro anti-tumor activity” value in data set [1] is “inactive”. Also, in the data set on Histone H1, the “digestion of histone H1” value is “no activity”.

(Values after patent US20080274959A1, “Actinomadura Chromoprotein, Apoprotein and Gene Cluster” (Wyeth, priority 2004, published 2008).)
